For the experiment, the target named is T1, PTGER3 (Homo sapiens, UniProt P43115).
T1 construct: purchased Promega (in-house HiBiT-GPCR construct library, NanoBRET)
T1 sequence (P43115 1-390): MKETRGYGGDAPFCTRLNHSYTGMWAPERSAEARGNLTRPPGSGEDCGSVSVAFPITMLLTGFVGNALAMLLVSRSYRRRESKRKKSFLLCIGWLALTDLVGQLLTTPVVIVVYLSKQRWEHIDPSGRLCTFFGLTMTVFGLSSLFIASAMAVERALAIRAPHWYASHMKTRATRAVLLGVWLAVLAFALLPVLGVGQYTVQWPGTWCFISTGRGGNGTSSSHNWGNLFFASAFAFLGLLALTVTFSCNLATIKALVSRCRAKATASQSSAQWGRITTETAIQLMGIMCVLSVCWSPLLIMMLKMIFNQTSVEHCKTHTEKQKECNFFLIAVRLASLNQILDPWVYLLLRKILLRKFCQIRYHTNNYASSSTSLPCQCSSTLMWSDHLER
The experiment is described as follows: NanoBRET screen HiBiT-PTGER3 in HEK293. Type of experiment: binding. How it is done: Each tracer candidate was screened across the entire library of HiBiT-GPCR constructs using NanoBRET as the detection modality. As depicted in Figure 4A, the specificity of interactions was evaluated through decrease in BRET due to competitive displacement of a bound tracer by excess parental compound. Each tracer was analyzed for binding to each HiBiT-GPCR fusion in the absence and in the presence of competing parental compound. Briefly, HEK293 cells were transfected with HiBiT-GPCR constructs diluted into promoterless DNA to reduce expression and maximize translocation to the cell surface. Each tracer candidate was then screened at concentrations of 1 μM and 0.1 μM across cells expressing these fusions. Cells were treated for 1.5 h with tracer either alone or in the presence of 20 μM competing parental compound (i.e., control). BRET was measured upon addition of purified LgBiT and subsequent complementation with HiBiT genetically fused to a GPCR. The specificity of interactions was assessed through a decrease in BRET signal due to competitive displacement of the bound tracer. To further gauge the robustness of these interactions, the fold response over the control (i.e., BRETtracer/BRETcontrol) was calculated. We chose a 1.5-fold response, which translates to ≥7-fold signal over noise as the minimal threshold required to score an interaction as positive. […]. Below we highlight the screening results obtained for our exemplary fluorescent tracers based on Clozapine, Amitriptyline and AZD1283.
HiBiT-GPCR DNA constructs were diluted in 10 mM Tris pH 8 to a final concentration of 0.01 μg/μL, arrayed in 96-well plates and stored at −20 °C. For transfection, HEK293 cells were suspended in Opti-MEM (without phenol red) supplemented with 2% fetal bovine serum (Seradigm) and 100 units/mL penicillin–streptomycin (Gibco) at a final concentration of 220,000 cells/mL and dispensed into white 96-well plates at 90 μL/well. Subsequent transfections and screens were carried using an Agilent Bravo Automated Liquid Handling Platform. First, the 96-well HiBiT DNA arrays were diluted 25-fold in Opti-MEM (without serum or phenol red) to a final concentration of 0.0004 μg/μL and 20 μL of the diluted DNAs were transferred into new 96-well plates. Next, promoterless carrier DNA (1 μg/μL) was diluted 25-fold (0.04 μg/μL) and then dispensed into the diluted arrays at 20 μL/well. Following brief mixing, Viafect transfection reagent (Promega) diluted 16-fold into Opti-MEM was dispensed into the plates at 40 μL/well. After mixing by pipetting, plates were incubated for 10 min on the pipetting station deck. The DNA-transfection reagent complexes were then added to plates containing cells. To facilitate the screen, 10 μL of DNA-transfection reagent complexes were added in duplicates to the top 4 and bottom 4 rows, resulting in two identical 48-well arrays per plate. Plates with transfected cells were incubated for 18–20 h at 37 °C/5% CO2. A screen of each tracer across the entire library using two different concentrations requires duplicate plates of transfected cells. Depending on the number of tracers being screened, transfections can be scaled up using the same ratios. The next day, for each tracer, four 20× screening solutions in tracer dilution buffer (Promega) were prepared: two duplicates at final concentration of 20 μM and two duplicates at a final concentration of 2 μM. A competing unmodified compound was added to one of each duplicate at a final concentration of 400 μM. The four resulting solutions were diluted 4-fold in Opti-MEM without serum or phenol red to generate 5× solutions (5 µM and 0.5 µM tracer +/− 100 μM competing compound). To screen the library, a BioTek MultiFlo FX liquid dispenser was used to dispense 22.5 µL of tracer solution to the top 4 rows and 22.5 µL tracer + competing compound solution to the 4 bottom rows. Plates were briefly mixed on an orbital shaker and incubated for 1.5 h at room temperature. […]

SMILES strings stand for the structures.

For `COc1ccc2c(n1)c(CCNC(C)=O)cn2CCNC(=O)CCc1ccc2n1[B-](F)(F)[N+]1=C(c3ccc[nH]3)C=CC1=C2` [Azamelatonin-1-NB590], the “NanoBRET Fold Response” value runs as follows: (0.1μM tracer) 1.00; (1μM tracer) 1.25.
Consider `CC(C)N(CC[C@H](c1ccccc1)c1cc(CCNC(=O)c2ccc(CNC(=O)CCc3ccc4n3[B-](F)(F)[N+]3=C(c5ccc[nH]5)C=CC3=C4)cc2)ccc1O)C(C)C` [Tolterodine-BZ-NB590], for which the “NanoBRET Fold Response” value (PTGER3, tracer 0.1μM) is reported as 0.99 and the “NanoBRET Fold Response” value (PTGER3, tracer 1μM) turned out to be 1.07.
For `O=C(CCc1ccc2n1[B-](F)(F)[N+]1=C(c3ccc[nH]3)C=CC1=C2)NCCOCCOCCNC(=O)OCCOCCN1CCN(C2=Nc3ccccc3Sc3ccccc32)CC1` [Quetiapine-a-2-NB590], the “NanoBRET Fold Response” value by setting is: (PTGER3, tracer 0.1μM) 0.97; (PTGER3, tracer 1μM) 1.04.
Take `Cc1cc2c(s1)Nc1ccccc1N=C2N1CCN(CCCNC(=O)CCOCCOCCOCCOCCNC(=O)CCc2ccc3n2[B-](F)(F)[N+]2=C(c4ccc[nH]4)C=CC2=C3)CC1` [Olanzapine-a-2-NB590]: the “NanoBRET Fold Response” value (PTGER3, tracer 0.1μM) was found to be 1.00 and the “NanoBRET Fold Response” value (PTGER3, tracer 1μM) was 0.95.
Turning to `O=C(CCc1ccc2n1[B-](F)(F)[N+]1=C(c3ccc[nH]3)C=CC1=C2)NCc1ccc(C(=O)NCCOCCOCCNCC(O)COc2cccc3ccccc23)cc1` (centres unmarked) [Propranolol-3-NB590], the “NanoBRET Fold Response” value is reported as 1.04 (PTGER3, 0.1μM) and 1.08 (PTGER3, 1μM).
Take `CN1CCN(C2=Nc3cc(Cl)ccc3N(CC(=O)NCCOCCOCCOCCOCCNC(=O)CCc3ccc4n3[B-](F)(F)[N+]3=C(c5ccc[nH]5)C=CC3=C4)c3ccccc32)CC1` [Clozapine-c-2-NB590]: the “NanoBRET Fold Response” value came to 1.00 (PTGER3, 0.1μM tracer) and 1.11 (PTGER3, 1μM tracer).
In the case of `O=C(CCc1ccc2n1[B-](F)(F)[N+]1=C(c3ccc[nH]3)C=CC1=C2)NCc1ccc(C(=O)NCCOCCC(=O)N[C@@H]2CC[C@@]3(O)[C@H]4Cc5ccc(O)c6c5[C@@]3(CCN4CC3CC3)[C@H]2O6)cc1` [Naltrexone-3-NB590], the “NanoBRET Fold Response” value (PTGER3, tracer 0.1μM) stood at 0.94 and the “NanoBRET Fold Response” value (PTGER3, tracer 1μM) was 0.79.
`CC(C)N(CC[C@H](c1ccccc1)c1cc(CCNC(=O)CCOCCOCCOCCOCCNC(=O)CCc2ccc3n2[B-](F)(F)[N+]2=C(c4ccc[nH]4)C=CC2=C3)ccc1O)C(C)C` [Tolterodine-2-NB590]: the “NanoBRET Fold Response” value (PTGER3, tracer 0.1μM) was found to be 1.14 and the “NanoBRET Fold Response” value (PTGER3, tracer 1μM) was found to be 0.99.
On to `Cc1nc2n(c(=O)c1CCN1CCC(c3noc4cc(F)ccc34)CC1)CCCC2OC(=O)NCCOCCOCCOCCOCCNC(=O)CCc1ccc2n1[B-](F)(F)[N+]1=C(c3ccc[nH]3)C=CC1=C2` (centres unmarked) [Risperidone-2-NB590], for which the “NanoBRET Fold Response” value worked out at 0.94 (PTGER3, tracer 0.1μM) and 1.12 (PTGER3, tracer 1μM).
In the case of `O=C(CCOCCOCCOCCOCCNC(=O)CCc1ccc2n1[B-](F)(F)[N+]1=C(c3ccc[nH]3)C=CC1=C2)NCCCN1CCN(C2=Nc3cc(Cl)ccc3Nc3ccccc32)CC1` [Clozapine-a-2-NB590], the “NanoBRET Fold Response” value reads like this: (PTGER3, 0.1μM tracer) 1.03; (PTGER3, 1μM tracer) 1.12.
Consider `COc1ccc2[nH]c(-c3ccc(CNC(=O)CCOCCOCCOCCOCCNC(=O)CCc4ccc5n4[B-](F)(F)[N+]4=C(c6ccc[nH]6)C=CC4=C5)cc3)c(CCNC(C)=O)c2n1` [AzomelatoninICO9-2-NB590], for which the “NanoBRET Fold Response” value is 1.04 (0.1μM tracer) and 1.20 (1μM tracer).
Consider `CN1CCN(C2=Nc3cc(Cl)ccc3Nc3ccc(CNC(=O)CCOCCOCCOCCOCCNC(=O)CCc4ccc5n4[B-](F)(F)[N+]4=C(c6ccc[nH]6)C=CC4=C5)cc32)CC1` [Clozapine-b-2-NB590], for which the “NanoBRET Fold Response” value (PTGER3, 0.1μM tracer) was 0.97 and the “NanoBRET Fold Response” value (PTGER3, 1μM tracer) was 0.97.
On to `COc1ccccc1N1CCN(CCCCN2C(=O)c3ccc(CNC(=O)CCOCCNC(=O)c4ccc(CNC(=O)CCc5ccc6n5[B-](F)(F)[N+]5=C(c7ccc[nH]7)C=CC5=C6)cc4)cc3C2=O)CC1` [NAN-190-3-NB590], for which the “NanoBRET Fold Response” value reads like this: (PTGER3, tracer 0.1μM) 0.99; (PTGER3, tracer 1μM) 0.64.
In the same order, the values of `N#CN=C(NCCCOc1cccc(CN2CCCCC2)c1)NCCNC(=O)CCOCCOCCOCCOCCNC(=O)CCc1ccc2n1[B-](F)(F)[N+]1=C(c3ccc[nH]3)C=CC1=C2` [Aminopotentidine-2-NB590] are 1.01 and 1.01.
On to `CN(C)CCC=C1c2ccccc2CCc2ccc(C(=O)NCCNC(=O)CCOCCOCCOCCOCCNC(=O)CCc3ccc4n3[B-](F)(F)[N+]3=C(c5ccc[nH]5)C=CC3=C4)cc21` [Amitriptyline-b-2-NB590], for which the “NanoBRET Fold Response” value (tracer at 0.1μM) is listed as 0.96 and the “NanoBRET Fold Response” value (tracer at 1μM) was 1.01.
`COc1ccccc1N1CCN(CCCCN2C(=O)c3ccc(CNC(=O)CCOCCOCCOCCOCCNC(=O)CCc4ccc5n4[B-](F)(F)[N+]4=C(c6ccc[nH]6)C=CC4=C5)cc3C2=O)CC1` [NAN-190-2-NB590]: the “NanoBRET Fold Response” value is, setting by setting: (PTGER3, tracer 0.1μM) 1.00; (PTGER3, tracer 1μM) 1.02.
The matching figures for `O=C(CCOCCOCCOCCOCCNC(=O)CCc1ccc2n1[B-](F)(F)[N+]1=C(c3ccc[nH]3)C=CC1=C2)NCCCN1CCN(C2=Nc3ccccc3Oc3ccc(Cl)cc32)CC1` [Loxapine-a-2-NB590]: 0.98 and 0.98.
The matching figures for `CCCn1c(=O)c2[nH]c(-c3ccc(OCC(=O)NCCNC(=O)CCOCCNC(=O)c4ccc(CNC(=O)CCc5ccc6n5[B-](F)(F)[N+]5=C(c7ccc[nH]7)C=CC5=C6)cc4)cc3)nc2n(CCC)c1=O` [XAC-3-NB590]: 0.97 and 1.05.
Consider `CCOC(=O)c1cc(C#N)c(N2CCC(C(=O)NS(=O)(=O)Cc3ccccc3/C=C/C(=O)NCCNC(=O)CCc3ccc4n3[B-](F)(F)[N+]3=C(c5ccc[nH]5)C=CC3=C4)CC2)nc1C` [AZD1283-1-NB590], for which the “NanoBRET Fold Response” value by setting is: (PTGER3, 0.1μM) 1.08; (PTGER3, 1μM) 1.10.
